Where two headings read alike, the source gives them in different places.
Key:
[1] = biological target: recombinant human Mcl-1 (residues 171-327) / Bim interaction (Homo sapiens (Human), UniProt Q07820); assay: biochemical; format: binding; settings: read-out: Mcl-1 HTRF IC50
[2] = test system: human multiple myeloma cell line, OPM-2; assay: Cell viability assay (OPM-2 10 FBS), CellTiter-Glo; format: cell-based
Summary of the method: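 Cells were seeded at 3000 cells/well in RPMI 1640 with 10% FBS and exposed to serially diluted compounds for 16 h at 37 °C, 5% CO2.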

[3] = TR-FRET, Mcl-1(171-327) / biotin-Bim (51-76)
[4] = Homo sapiens, OPM-2, 16 h, read-out: OPM-2 10% FBS IC50 IP, OPM-2 cells, 10% FBS, 16 h, CellTiter-Glo
[5] = 0.1 nM Mcl-1(171-327), 0.05 nM biotin-Bim (51-76)
[6] = Homo sapiens, OPM-2, 16 h, read-out: OPM-2 10% FBS IC50 IP, OPM-2 cells, 10% FBS, 16 h incubation
[7] = read-out: OPM-2 10% FBS IC50 IP, OPM-2 cells, 10% FBS, 16 h incubation

recombinant human Mcl-1 (residues 171-327) / Bim interaction, sequence (Q07820 171-327): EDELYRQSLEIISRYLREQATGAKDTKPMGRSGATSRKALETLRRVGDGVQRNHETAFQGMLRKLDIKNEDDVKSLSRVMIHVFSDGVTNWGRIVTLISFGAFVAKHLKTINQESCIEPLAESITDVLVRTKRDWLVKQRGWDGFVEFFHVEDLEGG

| Compound | IC50 [1, 3] | IC50 [2, 4] | IC50 [1, 5] | further results |
| --- | --- | --- | --- | --- |
| COC[C@@H](C)N(C)C(=O)C[C@]1(OC)/C=C/C[C@H](C)[C@@H](C)S(=O)(=O)NC(=O)c2ccc3c(c2)N(C[C@@H]2CC[C@H]21)C[C@@]1(CCCc2cc(Cl)ccc21)CO3 [Example 100451, 2-((1S,3′R,6′R,7′S,8′E,11′S,12′R)-6-chloro-7′-methoxy-11′,12′-dimethyl-13′,13′-dioxido-15′-oxo-3,4-dihydro-2H-spiro[naphthalene-1,22′-[20]oxa[13]thia[1,14]diazatetracyclo [14.7.2.0~3,6~.0~19,24~]pentacosa[8,16,18,24]tetraen]-7′-yl)-N-((2R)-1-methoxy-2-propanyl)-N-methylacetamide] | 0.111 nM | 412 nM | – | – |
| C[C@@H]1[C@@H](C)CCC[C@](O)(CC#N)[C@@H]2CC[C@H]2CN2C[C@@]3(CCCc4cc(Cl)ccc43)COc3ccc(cc32)C(=O)NS1(=O)=O (single isomer, unassigned) [Example 100080] | 0.61 nM | 818 nM | – | – |
| CO[C@@]1(CCCO)/C=C/C[C@H](C)[C@@H](C)S(=O)(=O)NC(=O)c2ccc3c(c2)N(C[C@@H]2CC[C@H]21)C[C@@]1(CCCc2cc(Cl)ccc21)CO3 [Example 100177, (1S,3′R,6′R,7′S,8′E,11′S,12′R)-6-chloro-7′-(3-hydroxypropyl)-7′-methoxy-11′,12′-dimethyl-3,4-dihydro-2H,15′H-spiro[naphthalene-1,22′-[20]oxa[13]thia[1,14]diazatetracyclo [14.7.2.0~3,6~.0~19,24~]pentacosa[8,16,18,24]tetraen]-15′-one 13′,13′-dioxide] | 0.258 nM | 259 nM | – | – |
| CO[C@]1(CN2CCc3ncncc3C2)/C=C/C[C@H](C)[C@@H](C)S(=O)(=O)NC(=O)c2ccc3c(c2)N(C[C@@H]2CC[C@H]21)C[C@@]1(CCCc2cc(Cl)ccc21)CO3 [Example 222, (1S,3′R,6′R,7′R,8′E,11′S,12′R)-6-chloro-7′-(7,8-dihydropyrido[4,3-d]pyrimidin-6(5H)-ylmethyl)-7′-methoxy-11′,12′-dimethyl-3,4-dihydro-2H,15′H-spiro[naphthalene-1,22′-[20]oxa[13]thia[1,14]diazatetracyclo [14.7.2.0~3,6~.0~19,24~]pentacosa[8,16,18,24]tetraen]-15′-one 13′,13′-dioxide] | – | – | 0.08 nM | IC50 [2, 6]: 118 nM |
| CO[C@@]1(Cc2nc(CO)c(C)o2)/C=C/C[C@H](C)[C@@H](C)S(=O)(=O)NC(=O)c2ccc3c(c2)N(C[C@@H]2CC[C@H]21)C[C@@]1(CCCc2cc(Cl)ccc21)CO3 [Example 100584, (1S,3′R,6′R,7′S,8′E,11′S,12′R)-6-chloro-7′-((4-(hydroxymethyl)-5-methyl-1,3-oxazol-2-yl)methyl)-7′-methoxy-11′,12′-dimethyl-3,4-dihydro-2H,15′H-spiro[naphthalene-1,22′-[20]oxa[13]thia[1,14]diazatetracyclo [14.7.2.0~3,6~.0~19,24~]pentacosa[8,16,18,24]tetraen]-15′-one 13′,13′-dioxide] | 0.139 nM | 349 nM | – | – |
| Cc1ncc([C@]2(O)/C=C/C[C@H](C)[C@@H](C)S(=O)(=O)NC(=O)c3ccc4c(c3)N(C[C@@H]3CC[C@H]32)C[C@@]2(CCCc3cc(Cl)ccc32)CO4)n1C (single isomer, unassigned) [Example 100559] | 0.113 nM | 1030 nM | – | – |
| COc1ncccc1[C@]1(OC)/C=C/C[C@H](C)[C@@H](C)S(=O)(=O)NC(=O)c2ccc3c(c2)N(C[C@@H]2CC[C@H]21)C[C@@]1(CCCc2cc(Cl)ccc21)CO3 [Example 100352, (1S,3′R,6′R,7′S,8′E,11′S,12′R)-6-chloro-7′-methoxy-7′-(2-methoxy-3-pyridinyl)-11′,12′-dimethyl-3,4-dihydro-2H,15′H-spiro[naphthalene-1,22′-[20]oxa[13]thia[1,14]diazatetracyclo [14.7.2.0~3,6~.0~19,24~]pentacosa[8,16,18,24]tetraen]-15′-one 13′,13′-dioxide] | 2.75 nM | 246 nM | – | – |
| C[C@@H]1[C@@H](C)C/C=C/[C@@](O)(C#CCN2CCS(=O)(=O)CC2)[C@@H]2CC[C@H]2CN2C[C@@]3(CCCc4cc(Cl)ccc43)COc3ccc(cc32)C(=O)NS1(=O)=O [Example 100389, (1S,3′R,6′R,7′S,8′E,11′S,12′R)-6-chloro-7′-(3-(1,1-dioxido-4-thiomorpholinyl)-1-propyn-1-yl)-7′-hydroxy-11′,12′-dimethyl-3,4-dihydro-2H,15′H-spiro[naphthalene-1,22′-[20]oxa[13]thia[1,14]diazatetracyclo [14.7.2.0~3,6~.0~19,24~]pentacosa[8,16,18,24]tetraen]-15′-one 13′,13′-dioxide] | 0.101 nM | – | – | IC50 ([2]; read-out: OPM-2 10% FBS IC50 IP, OPM-2 cells, 10% FBS, 16 h, CellTiter-Glo): 114 nM |
| CO[C@@]1(CC(=O)c2ccccn2)/C=C/C[C@H](C)[C@@H](C)S(=O)(=O)NC(=O)c2ccc3c(c2)N(C[C@@H]2CC[C@H]21)C[C@@]1(CCCc2cc(Cl)ccc21)CO3 [Example 100491, (1S,3′R,6′R,7′S,8′E,11′S,12′R)-6-chloro-7′-methoxy-11′,12′-dimethyl-7′-(2-oxo-2-(2-pyridinyl)ethyl)-3,4-dihydro-2H,15′H-spiro[naphthalene-1,22′-[20]oxa[13]thia[1,14]diazatetracyclo [14.7.2.0~3,6~.0~19,24~]pentacosa[8,16,18,24]tetraen]-15′-one 13′,13′-dioxide] | 0.208 nM | 308 nM | – | – |
| CO[C@]1(CN2CCN3CCS(=O)(=O)C[C@@H]3C2)/C=C/C[C@H](C)[C@@H](C)S(=O)(=O)NC(=O)c2ccc3c(c2)N(C[C@@H]2CC[C@H]21)C[C@@]1(CCCc2cc(Cl)ccc21)CO3 (single isomer, unassigned) [Example 220] | – | – | 0.052 nM | IC50 [2, 7]: 42 nM |
| C[C@@H]1[C@@H](C)CCC[C@@](O)(C[C@H]2CCCN(C)C2)[C@@H]2CC[C@H]2CN2C[C@@]3(CCCc4cc(Cl)ccc43)COc3ccc(cc32)C(=O)NS1(=O)=O (single isomer, unassigned) [Example 100398] | 0.618 nM | 457 nM | – | – |
| CO[C@@]1(CC(=O)N(C)CC(F)(F)F)/C=C/C[C@H](C)[C@@H](C)S(=O)(=O)NC(=O)c2ccc3c(c2)N(C[C@@H]2CC[C@H]21)C[C@@]1(CCCc2cc(Cl)ccc21)CO3 [Example 100375, 2-((1S,3′R,6′R,7′S,8′E,11′S,12′R)-6-chloro-7′-methoxy-11′,12′-dimethyl-13′,13′-dioxido-15′-oxo-3,4-dihydro-2H-spiro[naphthalene-1,22′-[20]oxa[13]thia[1,14]diazatetracyclo [14.7.2.0~3,6~.0~19,24~]pentacosa[8,16,18,24]tetraen]-7′-yl)-N-methyl-N-(2,2,2-trifluoroethyl)acetamide] | 0.07 nM | 176 nM | – | – |
| COCCN1CCN(C[C@]2(OC)/C=C/C[C@H](C)[C@@H](C)S(=O)(=O)NC(=O)c3ccc4c(c3)N(C[C@@H]3CC[C@H]32)C[C@@]2(CCCc3cc(Cl)ccc32)CO4)CC1 [Example 195, (1S,3′R,6′R,7′S,8′E,11′S,12′R)-6-chloro-7′-methoxy-7′-((4-(2-methoxyethyl)-1-piperazinyl)methyl)-11′,12′-dimethyl-3,4-dihydro-2H,15′H-spiro[naphthalene-1,22′-[20]oxa[13]thia[1,14]diazatetracyclo [14.7.2.0~3,6~.0~19,24~]pentacosa[8,16,18,24]tetraen]-15′-one 13′,13′-dioxide] | – | – | 0.214 nM | IC50 [2, 6]: 65 nM |
| CO[C@@]1(CN2CCN3CCOC[C@@H]3C2)/C=C/C[C@H](C)[C@@H](CCO)S(=O)(=O)NC(=O)c2ccc3c(c2)N(C[C@@H]2CC[C@H]21)C[C@@]1(CCCc2cc(Cl)ccc21)CO3 [Example 346, (1S,3′R,6′R,7′S,8′E,11′S,12′R)-6-Chloro-7′-((9aS)-hexahydropyrazino[2,1-c][1,4]oxazin-8(1H)-ylmethyl)-12′-(2-hydroxyethyl)-7′-methoxy-11′-methyl-3,4-dihydro-2H, 15′H-spiro[naphthalene-1,22′-[20]oxa[13]thia[1,14]diazatetracyclo[14.7.2.0-3,6˜.0˜19,24˜]pentacosa[8,16,18,24]tetraen]-15′-one 13′,13′-dioxide] | – | – | 0.062 nM | IC50 [2, 6]: 66 nM |
| CCO[C@]1(CN2CCN3CCCC[C@@H]3C2)/C=C/CC[C@@H](CC)S(=O)(=O)NC(=O)c2ccc3c(c2)N(C[C@@H]2CC[C@H]21)C[C@@]1(CCCc2cc(Cl)ccc21)CO3 [Example 42, (1S,3′R,6′R,7′R,8′E,12′R)-6-chloro-7′-ethoxy-12′-ethyl-7′-((9aR)-octahydro-2H-pyrido[1,2-a]pyrazin-2-ylmethyl)-3,4-dihydro-2H,15′H-spiro[naphthalene-1,22′-[20]oxa[13]thia[1,14]diazatetracyclo [14.7.2.0~3,6~.0~19,24~]pentacosa[8,16,18,24]tetraen]-15′-one 13′,13′-dioxide] | – | – | 0.17 nM | IC50 [2, 6]: 149 nM |
| C[C@@H]1[C@@H](C)C/C=C/[C@]2(CN(CC3CCCCC3)CCO2)[C@@H]2CC[C@H]2CN2C[C@@]3(CCCc4cc(Cl)ccc43)COc3ccc(cc32)C(=O)NS1(=O)=O [Example 139, (1S,3′R,6′R,7′R,8′E,11′S,12′R)-6-chloro-4″- (cyclohexylmethyl)-11′,12′-dimethyl-3,4-dihydro-2H,15′H-dispiro[naphthalene-1,22′-[20]oxa[13]thia[1,14]diazatetracyclo [14.7.2.0~3,6~.0~19,24~]pentacosa[8,16,18,24]tetraene-7′,2″-[1,4]oxazinan]-15′-one 13′,13′-dioxide] | – | – | 32 nM | IC50 [2, 6]: > 33300 nM |
| C[C@@H]1[C@@H](C)CCC[C@]2(CN3CCOC[C@H]3CO2)[C@@H]2CC[C@H]2CN2C[C@@]3(CCCc4cc(Cl)ccc43)COc3ccc(cc32)C(=O)NS1(=O)=O (single isomer, unassigned) [Example 399] | – | – | 0.401 nM | IC50 [2, 7]: 2100 nM |
